Measurements published in patent EP0031653A1, “N-Substituted alpha-amino acids, processes for making them and pharmaceutical compositions containing them” (BEECHAM GROUP PLC, priority 1979, dated 1981).
Read-outs that look alike come from different tables or passages of the source.

Key:
[1] = system: normolipidaemic rats; test: Effects on serum lipids in vivo, rat Model A (Oxoid diet); parameters: species or system Male Sprague-Dawley rats; settings: po, 168 h, compound at 0.1% of the diet (approximately 100 mg/kg/day), 7 days
Experimental: (§1) The compounds of the Examples above were tested for their effects on serum lipids in vivo using normolipidaemic rats.
(§2) Male Sprague-Dawley rats, 80-100 g, were randomised into groups of 8 after 5-7 days of feeding on the diet. The compounds were fed to the rats at a concentration of 0.1% of the powered diet (i.e. approximately 100 mg/kg/day), unless otherwise stated. The control groups were fed only the diet. At the end of the experiment, i.e. after 7 days, the rats were killed and their individual total serum cholesterol and triglyceride measured in mg/100 ml using a Technicon Autoanalyser. The high density lipoprotein (HDL)-cholesterol fraction, which was obtained from the serum by precipitation with heparin-manganous chloride, was only measured on "pooled" samples from each group.
(§3) The results are shown in Table 1 below. • ^+ Model A used an Oxoid diet. • Model B used a semi-synthetic diet rich in sucrose and cholesterol

[2] = system: normolipidaemic rats; test: Effects on serum lipids in vivo, rat Model B (semi-synthetic diet rich in sucrose and cholesterol); parameters: species or system Male Sprague-Dawley rats; settings: compound at 0.1% of the diet (approximately 100 mg/kg/day), 7 days, * = significant at p<0.05
Experimental: as §1, §2, §3

[3] = * = significant at p<0.05, read-out: Percentage difference from control values in Total Serum cholesterol
[4] = * = significant at p<0.05, read-out: Percentage difference from control values in Total Serum triglyceride

| Compound | change in vivo at 100 mg/kg/day [1, 3] | change in vivo at 100 mg/kg/day [1, 4] | Percentage difference from control values in Total Serum cholesterol [2] | Percentage difference from control values in Total Serum triglyceride [2] |
| --- | --- | --- | --- | --- |
| O=C(O)[C@H](CSCc1ccccc1)NCc1ccc(Cl)cc1 [Example 8, N-(4-Chlorobenzyl)-S-benzyl-L-cysteine] | 52% | -35% | – | – |
| O=C(O)[C@H](Cc1ccccc1)NCc1ccc(Cl)cc1 [Example 2, N-(4-chlorobenzyl)-L-phenylalanine] | 31% | -40% | +14% | -44^* % |
| O=C(O)[C@H](Cc1ccc(O)cc1)NCc1ccc(Cl)cc1 [Example 17, N-4-chlorobenzyl-tyrosine] | – | -18% | – | – |
| O=C(O)[C@H](Cc1ccccc1)NCc1cccc(C(F)(F)F)c1 [Example 5, N-(3-Trifluoromethylbenzyl)-L-phenylalanine] | 47% | -41% | – | – |
| O=C(O)C(CCc1ccccc1)NCc1ccc(Cl)cc1 (racemic) [Example 15, (DL)-2-(4-Chlorobenzylamino)-4-phenylbutyric acid] | 68% | -11% | – | – |
| COC(=O)[C@H](Cc1ccccc1)NCc1ccc(Cl)cc1 [Example 18, N-(4-chlorobenzyl)-L-phenylalanine methyl ester] | 25% | -43% | – | – |
| O=C(O)[C@H](Cc1ccccc1)NCc1ccc2c(c1)OCO2 [Example 1, N-(3,4-methylenedioxybenzyl)-L-phenylalanine] | – | -31% | – | – |
| O=C(O)C(Cc1ccc(Cl)cc1)NCc1ccc(Cl)cc1 (racemic) [Example 7, N-(4-Chlorobenzyl)-DL-4-chlorophenylalanine] | 56% | -50% | – | – |
| O=C(O)C(Cc1ccccn1)NCc1ccc(Cl)cc1 (racemic) [Example 11, DL-2-(4-Chlorobenzylamino)-3-(2-pyridyl)-propionic acid] | – | – | +27^* % | +27% |
| O=C(O)[C@@H](Cc1ccccc1)NCc1ccc(Cl)cc1 [Example 3, N-(4-Chlorobenzyl)-D-phenylalanine] | – | – | +49^* % | -67^* % |
| O=C(O)C(Cc1c[nH]c2ccccc12)NCc1ccc(Cl)cc1 (racemic) [Example 14, N-4-Chlorobenzyl-DL-tryptophan] | 36% | – | – | – |
| O=C(O)C(Cc1ccncc1)NCc1ccc(Cl)cc1 (racemic) [Example 12, DL-2-(4-Chlorobenzylamino)-3-(4-pyridyl)-propionic acid] | – | – | -10% | -10% |
| O=C(O)[C@H](Cc1ccccc1)NCc1ccc(Br)cc1 [Example 4, N-(4-Bromobenzyl)-L-phenylalanine] | 43% | -40% | – | – |
